Laboratory results as given in patent US6465457B1 (priority 1991, dated 2002).
Where two headings read alike, the source gives them in different places.

What was measured:
Assay type in all cases: in vivo
[1] = tested on: Thanatephorus cucumeries (Rice); test: Foliar fungal disease test on plants: Thanatephorus cucumeries (Rice); conditions: one or two days before inoculation
Description: (§1) The compounds were tested against a variety of foliar fungal diseases of plants. The technique employed was as follows.
(§2) The plants were grown in John Innes Potting Compost (No 1 or 2) in 4 cm diameter minipots. The test compounds were formulated either by bead milling with aqueous DISPERSOL T or as a solution in acetone or acetone/ethanol which was diluted to the required concentration immediately before use. […] The sprays were applied to maximum retention and the root drenches to a final concentration equivalent to approximately 40 ppm a.i. in dry soil. TWEEN 20 was added to give a final concentration of 0.05% when the sprays were applied to cereals.
(§3) For most of the tests the compounds were applied to the soil (roots) or to the foliage (by spraying) one or two days before the plant was inoculated with the disease. An exception was the test on Erysiphe graminis in which the plants were inoculated 24 hours before treatment. Foliar pathogens were applied by spray as zoosporangial suspensions onto the leaves of test plants. After inoculation, the plants were put into an appropriate environment to allow infection to proceed and then incubated until the disease was ready for assessment. The period between inoculation and assessment varied from four to fourteen days according to the disease and environment.
(§4) The disease level present (i.e. leaf area covered by actively sporulating disease) on each of the treated plants was recorded using the following assessment scale:
(§5) Each assessment was then expressed as a percentage of the level of disease present on the untreated control plants. This calculated value is referred to as a POCO (Percentage of Control) value. An example of a typical calculation is as follows:
(§6) Disease level on untreated control=90
(§7) Disese level on treated plant=30 [formula]
(§8) This calculated POCO value is then rounded to the nearest of the values in the 9-point assessment scale shown above. In this particular example, the POCO value would be rounded to 30. If the calculated POCO falls exactly mid-way between two of the points, it is rounded to the lower of the two values.

[2] = tested on: Plasmopara viticola (Vines); test: Foliar fungal disease test on plants: Plasmopara viticola (Vines); conditions: one or two days before inoculation
Description: as §1, §2, §3, §4, §5, §6, §7, §8

[3] = tested on: Erysiphe graminis tritici (Wheat); test: Foliar fungal disease test on plants: Erysiphe graminis tritici (Wheat); conditions: 100 ppm a.i. foliar spray or root drench (approx. 40 ppm in dry soil); plants inoculated 24 hours before treatment
Description: as §1, §2, §3, §4, §5, §6, §7, §8

[4] = tested on: Phytophthora infestans (Tomatoes); conditions: 100 ppm a.i. foliar spray or root drench (approx. 40 ppm in dry soil), one or two days before inoculation
[5] = tested on: Pyricularia oryzae (Rice); conditions: one or two days before inoculation
Septoria nodorum (Wheat) = test: Foliar fungal disease test on plants: Septoria nodorum (Wheat); conditions: one or two days before inoculation
Description: as §1, §2, §3, §4, §5, §6, §7, §8

[6] = tested on: Venturia inaequalis (Apples); test: Foliar fungal disease test on plants: Venturia inaequalis (Apples); conditions: 100 ppm a.i. foliar spray or root drench (approx. 40 ppm in dry soil), one or two days before inoculation
Description: as §1, §2, §3, §4, §5, §6, §7, §8

[7] = tested on: Puccinia recondita (Wheat); test: Foliar fungal disease test on plants: Puccinia recondita (Wheat); conditions: one or two days before inoculation
Description: as §1
The plants were grown in John Innes Potting Compost (No 1 or 2) in 4 cm diameter minipots. The test compounds were formulated either by bead milling with aqueous DISPERSOL T or as a solution in acetone or acetone/ethanol which was diluted to the required concentration immediately before use. The formulations (100 ppm active ingredient) were sprayed on to the foliage or applied to the roots of the plants in the soil. The sprays were applied to maximum retention and the root drenches to a final concentration equivalent to approximately 40 ppm a.i. in dry soil. TWEEN 20 was added to give a final concentration of 0.05% when the sprays were applied to cereals.
as §3, with “For most of the tests the compounds were applied to the soil (roots) or to the foliage (by spraying) one or two days before the plant was inoculated with the disease.” left out
as §4, §5, §6, §7, §8

[8] = 100 ppm a.i. foliar spray or root drench (approx. 40 ppm in dry soil)

Row | SMILES | POCO (Percentage of Control) disease level, Thanatephorus cucumeries (Rice) [1, 8] | POCO (Percentage of Control) disease level, Plasmopara viticola (Vines) [2, 8] | POCO (Percentage of Control) disease level, Erysiphe graminis tritici (Wheat) [3] | POCO (Percentage of Control) disease level, Phytophthora infestans (Tomatoes) [4] | POCO (Percentage of Control) disease level, Pyricularia oryzae (Rice) [5, 8] | POCO (Percentage of Control) disease level, Septoria nodorum (Wheat) (Septoria nodorum (Wheat); [8]) | POCO (Percentage of Control) disease level, Venturia inaequalis (Apples) [6] | POCO (Percentage of Control) disease level, Puccinia recondita (Wheat) [7, 8] | POCO (Percentage of Control) disease level, Thanatephorus cucumeries (Rice) ([1]; 10 ppm foliar spray only) | POCO (Percentage of Control) disease level, Plasmopara viticola (Vines) ([2]; 10 ppm foliar spray only) | POCO (Percentage of Control) disease level, Pyricularia oryzae (Rice) ([5]; 10 ppm foliar spray only) | POCO (Percentage of Control) disease level, Puccinia recondita (Wheat) ([7]; 10 ppm foliar spray only) | POCO (Percentage of Control) disease level, Septoria nodorum (Wheat) (Septoria nodorum (Wheat); 10 ppm foliar spray only)
1 | COC=C(C(=O)OC)c1ccccc1COC(=O)N(C)c1ccccc1F [3 (2)] | 0 (0 = 0% disease present) | 0 (0 = 0% disease present) | 0 (0 = 0% disease present) | 0 (0 = 0% disease present) | 0 (0 = 0% disease present) | 0 (0 = 0% disease present) | 0 (0 = 0% disease present) |  |  |  |  |  | 
2 | CCN(C(=O)OCc1ccccc1C(=COC)C(=O)OC)c1ccccc1F [3 (3)] | 0 (0 = 0% disease present) | 0 (0 = 0% disease present) | 0 (0 = 0% disease present) | 0 (0 = 0% disease present) | 0 (0 = 0% disease present) | 0 (0 = 0% disease present) | 0 (0 = 0% disease present) |  |  |  |  |  | 
3 | COC=C(C(=O)OC)c1ccccc1OC(=O)NCc1ccccc1 [4 (17)] | 0 (0 = 0% disease present) | 0 (0 = 0% disease present) | 10 (10 = 5.1-10% disease present) |  | 5 (5 = 3.1-5% disease present) | 60 (60 = 30.1-60% disease present) |  | 1 (1 = 0.1-1% disease present) |  |  |  |  | 
4 | CCN(C(=O)OCc1ccccc1C(=COC)C(=O)OC)c1ccccc1 [5 (3)] | 5 (5 = 3.1-5% disease present) | 0 (0 = 0% disease present) | 0 (0 = 0% disease present) | 5 (5 = 3.1-5% disease present) | 0 (0 = 0% disease present) | 0 (0 = 0% disease present) | 0 (0 = 0% disease present) |  |  |  |  |  | 
5 | COC=C(C(=O)OC)c1ccccc1OC(=O)Nc1ccccc1 [5 (17)] | 90 (90 and 94 = 60.1-100% disease present) | 0 (0 = 0% disease present) | 60 (60 = 30.1-60% disease present) | 60 (60 = 30.1-60% disease present) | 5 (5 = 3.1-5% disease present) | 60 (60 = 30.1-60% disease present) | 1 (1 = 0.1-1% disease present) |  |  |  |  |  | 
6 | COC=C(C(=O)OC)c1ccccc1COC(=O)N(C)c1cccc([N+](=O)[O-])c1 [6 (2)] | 30 (30 = 20.1-30% disease present) | 0 (0 = 0% disease present) | 0 (0 = 0% disease present) | 10 (10 = 5.1-10% disease present) | 0 (0 = 0% disease present) | 0 (0 = 0% disease present) | 0 (0 = 0% disease present) |  |  |  |  |  | 
7 | CCN(C(=O)OCc1ccccc1C(=COC)C(=O)OC)c1cccc([N+](=O)[O-])c1 [6 (3)] | 90 (90 and 94 = 60.1-100% disease present) | 0 (0 = 0% disease present) | 0 (0 = 0% disease present) | 10 (10 = 5.1-10% disease present) | 0 (0 = 0% disease present) | 0 (0 = 0% disease present) | 0 (0 = 0% disease present) |  |  |  |  |  | 
8 | COC=C(C(=O)OC)c1ccccc1COC(=S)Nc1ccc(Cl)cc1 [11 (6)] |  |  |  |  |  |  |  |  | 90 (90 and 94 = 60.1-100% disease present) | 0 (0 = 0% disease present) | 20 (20 and 24 = 10.1-20% disease present) | 20 (20 and 24 = 10.1-20% disease present) | 60 (60 = 30.1-60% disease present)
9 | COC=C(C(=O)OC)c1ccccc1COC(=O)Nc1ccc(F)cc1F [24 (1)] | 60 (60 = 30.1-60% disease present) | 0 (0 = 0% disease present) | 0 (0 = 0% disease present) | 20 (20 and 24 = 10.1-20% disease present) | 90 (90 and 94 = 60.1-100% disease present) | 60 (60 = 30.1-60% disease present) | 0 (0 = 0% disease present) |  |  |  |  |  | 
10 | COC=C(C(=O)OC)c1ccccc1COC(=O)N(C)c1ccc(F)cc1F [24 (2)] | 0 (0 = 0% disease present) | 0 (0 = 0% disease present) | 0 (0 = 0% disease present) | 0 (0 = 0% disease present) | 0 (0 = 0% disease present) | 0 (0 = 0% disease present) | 0 (0 = 0% disease present) |  |  |  |  |  | 
11 | COC=C(C(=O)OC)c1ccccc1COC(=O)Nc1ccc(OC)nc1 [32 (1)] | 90 (90 and 94 = 60.1-100% disease present) | 0 (0 = 0% disease present) | 20 (20 and 24 = 10.1-20% disease present) | 30 (30 = 20.1-30% disease present) | 90 (90 and 94 = 60.1-100% disease present) | 30 (30 = 20.1-30% disease present) | 60 (60 = 30.1-60% disease present) |  |  |  |  |  | 
12 | COC=C(C(=O)OC)c1ccccc1COC(=O)Nc1ccccc1C(=O)OC [33 (1)] | 90 (90 and 94 = 60.1-100% disease present) | 90 (90 and 94 = 60.1-100% disease present) | 60 (60 = 30.1-60% disease present) | 90 (90 and 94 = 60.1-100% disease present) | 90 (90 and 94 = 60.1-100% disease present) | 90 (90 and 94 = 60.1-100% disease present) | 0 (0 = 0% disease present) |  |  |  |  |  | 
